Assays:
[1] = test system: branch of the superior sagittal sinus in the brains of rats and hamsters; test: Transection of a branch of the superior sagittal sinus in the brain; hemostasis assessed visually from time-stamped video; format: in vivo
Protocol: Animals were anesthetized with an i.p. injection of ketamine (80 mg/kg) and xylazine (8 mg/kg). All surgical procedures were conducted under an operating microscope. Twenty-two animals, including 10 adult hamsters and 12 young adult female Spraque-Dawley rats (200-250 g), were treated with either iced saline or 20 μl of a 1% peptide solution at the site of the sinus branch transection. The material was prepared by dissolving RADA 16-1 (n-RADARADARADARADA-c; SEQ ID NO: 1) peptide in sterile water, and the peptide-containing solution was applied to the injured tissue with a 31 gauge needle attached to a 2 cc syringe.
The experiment was videotaped with a time stamp and was replayed one frame at a time to evaluate the length of time required for the peptide solution to form a gel, which effectively impeded bleeding. Hemostasis was assessed visually, and “complete hemostasis” was defined as the complete lack of movement of blood from the wound site.
Durations were measured from the start of application of peptide solution to the completion of hemostasis after transection of the veins leading to the sinus in the brains of adult rats. […] In the saline controls, cessation of bleeding was never achieved. The saline control experiment was terminated at the same time point in order to prevent the animals from bleeding to death.
A total of 22 rats and 64 hamsters have been subjected to experiments in which peptide-containing solutions effectively achieved hemostasis within 10 seconds following application to a site intracranial bleeding.

superior sagittal sinus = test: Complete transection of the superior sagittal sinus; hemostasis; format: in vivo; conditions: control animals still bleeding after 20 seconds
From the text: A higher concentration of peptide (e.g., approximately 3%-4%) was used in the latter experiment in order to achieve hemostasis. The three saline control cases continued to bleed after 20 seconds.

femoral artery = test: Femoral artery transection; hemostasis; format: in vivo, adult rats
Protocol: The sciatic nerve and the adjacent femoral artery were exposed in adult rats, and the femoral artery was transected. Twelve rats were treated by application of 20 μl of a 1% solution of RADA 16-I peptide to the site of transection using a glass pipette attached to a syringe body, while controls were treated by applying cold saline to the site of transection. […] The saline control cases continued to bleed until the experiment was terminated at 110 seconds. […] A series of pictures was taken in an adult rat in which the femoral artery was transected. In the picture taken first, the sciatic nerve and the femoral artery are exposed. […] The assembled material can be suctioned off the site easily if desired.
In the saline controls, hemostasis was never reached.

spinotrapezius muscles = test: Muscle trauma, deep cut in the spinotrapezius muscles on the back; hemostasis; format: in vivo, rat; conditions: 1% peptide solution applied in the cut
From the text: The spinotrapezius muscles on the back of the rats were exposed and a deep cut was made in the muscle, after which 1% peptide solution (RADA16-I) was applied in the cut. Within 10 seconds, all bleeding had stopped. With the application of iced saline alone, control animals continued to bleed after 20 seconds.

muscle of the hind limb = test: Hind limb muscle wounds (porteocaudalis and musculus tibialis cranialis); hemostasis; format: in vivo
From the text: However when an artery or vein was transected 2% or higher material was needed to bring about hemostasis. With the application of iced saline alone, control animals continued to bleed after 20 seconds.

[2] = test system: liver (lobus sinister lateralis); test: Liver, rostral to caudal cut of the lobus sinister lateralis (relatively low pressure vessel); hemostasis; format: in vivo, adult rat; conditions: 1% peptide solution, topically and in the cut
From the text: Profuse bleeding ensued. A 1% peptide solution (RADA16-1) was applied to the cut and in its vicinity using a 27 gauge needle and 4 cc syringe. All bleeding stopped within 10 seconds. A series of pictures was obtained. […] After treating the site with 1% peptide solution (applied topically and in the cut), all bleeding stopped within 10 seconds. A clear area was observed between the two halves of the lobus sinister lateralis. This procedure was repeated several times with the same result.

[3] = test system: liver and a major branch of the portal vein; test: Liver, transverse cut transecting a major branch of the portal vein (higher pressure); hemostasis; format: in vivo
Protocol: A series of pictures illustrate the experiment. […] The cut was treated with 4% peptide solution applied topically and in the cut. All bleeding stopped within 10 seconds. […] Thus, application of 4% peptide solution brings about complete hemostasis in a high pressure bleeding environment in less than 10 seconds. […] This procedure was repeated several times with the same result.

[4] = test system: liver (lobus sinistras laterialis); test: Liver, removal of 1/4 of the lobe, topical treatment of the margin; hemostasis; format: in vivo
Protocol: In other experiments ¼ of the lobe in the lower right quadrant of the lobus sinistras laterialis was removed, and the margin was treated with a topical application of 2% peptide (RADA16-I) to the site of injury. Bleeding stopped in less than 10 seconds.

intestine (duodenum) = test: Perforated intestine at the level of the duodenum; leakage of gastric fluid; format: in vivo, adult rat
Protocol: An additional volume of 2% peptide solution was injected into the duodenum at the level of the injury. […] In the control cut at the level of the duodenum, the wall of the intestine inverted and gastric fluids continued to leak from the site of injury when left untreated.

skin wounds = test: 4 mm punch biopsy healing test of skin and subcutaneous tissue; format: in vivo; conditions: single application
Protocol: The regions from which the biopsies were taken were either treated by a single application of self-assembling peptide (RADA16-I) solution or were left untreated. The wounds were left unbandaged. A series of pictures of a 4 mm punch biopsy healing test in which injured animals were treated with the self assembling peptide and compared to matching cases with no treatment illustrates the results. The wounds were photographed on day 0, day 1, day 4, and day 7. […] Treatment with the peptide appeared to speed healing by as much as 5 days in some cases.

[5] = control cut treated 15 minutes after the injury

## n-RADARADARADARADA-c [RADA16-I]
[1]; 20 μl of a 1% peptide solution, rats and hamsters, all cases
  time to complete hemostasis after application of the peptide solution: ≤ 10 s
[1]; adult rat, five seconds after the peptide solution was applied
  hemostasis in picture series: Complete hemostasis was achieved
[1]; adult rats, transection of the veins leading to the sinus
  average duration from start of application to completion of hemostasis: 8.3 s
Superior sagittal sinus
  hemostasis after iced saline was removed and peptide solution applied: complete hemostasis almost immediately
Femoral artery; 20 μl of a 1% solution, all treated cases
  time to hemostasis: less than 10 seconds
Femoral artery; adult rat, after about five seconds
  hemostasis in picture series: complete hemostasis was observed
Femoral artery; control animals
  hemostasis after replacement of cold saline with the peptide solution: almost immediate achievement of complete hemostasis
Femoral artery; duration of the test
  time complete hemostasis was maintained: ≥ 1 h
Spinotrapezius muscles
  time until all bleeding had stopped: ≤ 10 s
Muscle of the hind limb; between 1% to 100% peptide
  hemostasis in limb wounds: hemostasis was achieved in all cases
Muscle of the hind limb; when an artery or vein was transected
  material concentration needed to bring about hemostasis: ≥ 2%
[2]
  time until all bleeding stopped: ≤ 10 s
[3]; 1% solution
  hemostasis: partial cessation of bleeding
[3]; 2% or 3% peptide solution
  hemostasis: complete hemostasis was also achieved
[3]; 4% peptide solution, topically and in the cut
  time until all bleeding stopped: ≤ 10 s
[3]; 4% peptide solution, ten minutes later, after physical stress
  bleeding at later time: still no bleeding
[3]; 30 seconds after treatment
  hemostasis after excess peptide structure was wiped away: hemostasis was maintained
[4]; 2% peptide, removed one minute later
  hemostasis at the margin after the peptide was removed: complete hemostasis was achieved
[4]; topical 2% peptide
  time until bleeding stopped: less than 10 seconds
Intestine (duodenum); 2% peptide solution
  leakage of gastric fluids after treatment of the site: all leakage of gastric fluids from the intestine stopped
Intestine (duodenum); 2% peptide solution, duration of the procedure
  leakage after additional volume injected into the duodenum: prevented all leakage from the intestine for one hour
Intestine (duodenum); [5]
  intestinal wall inversion: stopped the progression of the intestinal wall inversion
  leakage when treated after the injury: stopped all leakage from this injury site
Skin wounds; contraction of the wound site as early as day 1
  wound healing versus untreated: healed much faster
Skin wounds; some cases
  speeding of healing versus no treatment: ≤ 5 days
